Bounds are passed on as bounds.

The source of these data is a melting point compilation (Tetko et al.; mined from patent text by program, amines drawn as free bases though some values may be those of a salt).

The melting point is the temperature, or range, at which the solid turns liquid. For the compound `COc1ccc(-c2cc(C(=O)Nc3cccc(F)n3)c3ccccc3n2)cc1OC`, the melting point is 225 to 226 °C.
For `COc1ccc(Br)c(C(=O)N2CCN(S(=O)(=O)c3ccc(Br)cc3)CC2)c1`, the melting point amounted to 180 °C.
With `O=C(O)/C=C/c1ccc(N2CCCC2)cc1`, the melting point came to 265 °C.
As for `O=S1(=O)NCCCN1CCc1ccncc1`, the figure is 124 to 125 °C; as for `Cc1oc(-c2ccccc2)nc1COc1ccc(COc2nn(C)cc2CC(=O)O)cn1`, 139 to 140 °C; as for `Cc1cccc2c(=O)cc(C3CCCC3)oc12`, 51 to 52 °C.
As for `C=C(C)CSc1ccccc1S(=O)(=O)NC(C)(C)C`, the figure is 104 to 107 °C; as for `CC(=O)Nc1cc(I)c(-c2cc([N+](=O)[O-])c(NC(C)=O)cc2I)cc1[N+](=O)[O-]`, 296 to 298 °C.
As for `CCCCc1nc(=O)c2cc(C3=NN(C(c4ccccc4)(c4ccccc4)c4ccccc4)[C@H]4C(=O)N(C)C(=O)[C@@H]34)ccc2[nH]1` (relative stereo), the figure is 182 °C; as for `CN1C(=O)C(C)(Cc2ccccc2)N(C)C(=O)C1=Cc1cccnc1C#N` (stereo not drawn), 163 °C.
`Cc1cc(-c2cccc(Cl)c2)nnc1Cl` showed a melting point of 138 to 140 °C.
Consider `CCCCCCCc1ccc(C=Nc2ccc(C#N)cc2)cc1`, for which the melting point lay within 32.7 to 33 °C.
As for `O=C(O)/C=C/c1ccc(-c2nc3c(=O)n(CC4CCCC4)c(=O)n(CC4CCCC4)c3[nH]2)cc1`, the figure is more than 300 °C.
As for `CS(=O)(=O)c1ccc(-c2cnn(-c3ccc(F)c(F)c3)c(=O)c2OCCC2CCCC2)cc1`, the figure is 100 to 101 °C; as for `CSc1cc(-c2ccccc2)nc(-c2cccc(C(F)(F)F)c2)c1`, 79.1 °C.
As for `COc1cc(-c2nc(C)cs2)cc(OC)c1OC`, the figure is 105 to 106 °C; as for `O=C1N(Cc2ccccn2)c2cccnc2C12COc1cc3c(cc12)OCCO3` (stereo not drawn), 146 to 147 °C.
Regarding `CCc1cc(CC(=O)O)ccc1OCc1ccc2ccccc2n1`, the melting point came out at 144 °C.
As for `NC(=O)c1nccn1C1Cc2c(Cl)cccc2C1=O` (stereo not drawn), the figure is 90 °C.
As for `CCCCC(=O)Nc1c(C(=O)OC)cc(C)cc1[N+](=O)[O-]`, the figure is 59 to 60 °C.
The value for `CN(C)CCc1ccc([N+](=O)[O-])c2[nH]ncc12` was 145 to 146 °C.
`CC(=O)c1ccc(C=C(Cl)Cl)s1` came in with a melting point of 81 to 85 °C.
As for `O=C1CNCC2c3ccccc3CCN12` (stereo not drawn), the figure is 119 to 120 °C; as for `COc1cc(/C=C/c2ccc(C(C)(C)C)cc2)cc(OC)c1OC`, 127 to 128 °C.
In the case of `CCOC(=O)c1ccc(-c2nc(COc3ccc(CCl)cc3OCC)c(C)o2)s1`, the melting point was in the range of 157 to 158 °C.
As for `CC(C)C(=O)N[C@H](CSSC[C@@H](NC(=O)C(C)C)C(=O)O)C(=O)O`, the figure is 135 to 137 °C.
For `O=C1C(=O)c2ccccc2C2=C1SCC1(CCN(CC3CC3)CC1)O2`, the melting point lay within 161 to 164 °C.
The value for `O=C1CC2CCC1C(Nc1ccc(Cl)cc1)C21CCCCC1` (stereo not drawn) was 139 to 141 °C; that for `N#Cc1ncn2c(C(F)(F)F)cc(-c3ccncc3)nc12` was 254 °C; that for `CC(C)(C)C(=O)Nc1cc(Cl)ccc1Cl` was 74 to 76 °C.
The value for `N#CN1CCNC(c2ccccc2)c2ccccc2C1` (stereo not drawn) was 134 to 135 °C; that for `CC(C)(C)c1ccccc1COc1ccc(N)nn1` was 147 to 149 °C.
The value for `CCc1ccc(CCC(=O)O)c(C(=O)O)c1` was 174 °C; that for `Cc1cc(C2=NN(C3=NNC(=O)CS3)[C@H](C)Cc3cc4c(cc32)OCO4)ccc1[N+](=O)[O-]` was 207 to 211 °C; that for `CCCn1nc2c(N)nc3ccccc3c2c1CCN(C(N)=O)c1ccc(F)c(F)c1` was 211 to 212 °C.
`CCc1ccccc1C=C1CCN2Cc3ccccc3N=C12` yielded a melting point of 224 to 225 °C.
The value for `CC(C)C(c1ccc(NC(=O)CC(=O)c2ccccc2)c([N+](=O)[O-])c1)n1ccnc1` (stereo not drawn) was 106 °C; that for `COc1ccsc1-c1nsc2ccc(N3C(=O)C4=C(CCCC4)C3=O)cc12` was 146 to 149 °C.
The value for `CC(C)(C)c1ccc(C(=O)Nc2cn3cc(-c4cccnc4)ccc3n2)cn1` was 272 to 274 °C; that for `CC(=O)OCCCN1CCC(CNC(=O)[C@@H]2CCCN2S(=O)(=O)c2ccc(Cl)c(COc3cccc4c(-n5ccnc5)cc(C)nc34)c2Cl)CC1` was 96 °C.
The value for `O=[N+]([O-])C1=C2N(Cc3ccc(Cl)nc3)CCN2C2CCCC1O2` (stereo not drawn) was 175 °C; that for `CC(C)(C)c1ccc(-c2nc(NC(=O)c3cccnc3)sc2-c2ccncc2)cc1` was 326 to 328 °C; that for `COCCOc1cc2c(Nc3cc(OC)c(Cl)cc3Cl)c(C#N)cnc2cc1F` was 170 to 172 °C.
For `Cc1cc(Cc2ccc(C(=O)O)cc2)n(C)c1C(=O)c1ccc(Cl)cc1`, the melting point is 245 to 247 °C.
The value for `CCn1cnc(Cl)c2nc(C3CC3)nc1-2` was 140 to 145 °C; that for `CC(=O)Nc1ccc(Sc2c(NCc3ccccc3)cc(C(=O)O)cc2S(N)(=O)=O)cc1` was 255 to 258 °C.
As for `ClC(=NNc1ccccc1)c1c(Cl)cccc1Cl`, the figure is 95.5 to 96.5 °C; as for `FCc1cc(Cl)n2nc(SCc3ccccc3)nc2n1`, 81 to 86 °C.
Consider `Cc1nc(N)sc1C(=O)OC(C)(C)C`, for which the melting point fell in the range of 167 to 170 °C.
The value for `CC(C)Nc1c(NCc2ccccc2)cc(C(=O)O)cc1S(N)(=O)=O` was 233 to 234 °C.
As for `O=C(Nc1ccc(Oc2cccc3c2CCC3=O)nc1)c1ccc(Cl)c(Cl)c1`, the figure is 202 to 204 °C.
In turn, `Cc1cccc(NC(=S)NC2N=C(c3ccccc3F)c3ccccc3N(CC(=O)N3CC4CCC(CC4)C3)C2=O)c1` (racemic) returned a melting point of 129 to 134 °C.
As for `Cc1ccc(S(=O)(=O)OCC2Cc3cccc(-c4ccc(F)cc4)c3O2)cc1` (stereo not drawn), the figure is 83 to 86 °C.
The value for `COc1ccc(OC)c(NC(=O)C2OC(=O)c3ccccc3C2c2ccc(F)cc2)c1` (stereo not drawn) was 133 to 136 °C; that for `C#CC(CC(=O)OC(C)(C)C)N=Cc1ccccc1` (stereo not drawn) was 199 to 200 °C; that for `CCOC(=O)c1cc2ccccc2n1S(=O)(=O)c1ccc(C)cc1` was 92 to 95 °C.
As to `C=CCc1c2nc(C(=O)OC)cc(Cl)c2cc2c(=O)cc(C(=O)OCC)oc12`, the melting point is 197 to 198 °C.
As for `O=C(c1ccc(Cl)c([N+](=O)[O-])c1)c1nccs1`, the figure is 118 to 119 °C.
The value for `CN(C)Cc1cnc2cc(NC(=O)c3ccc(-c4ccc(Cl)cc4)cc3)ccc2c1` was 236 to 238 °C; that for `Nc1nc(N)c2c(ccc3c2ccn3-c2ccncc2)n1` was 328 to 330 °C.
The value for `C1=Nc2cccc(-c3ccoc3)c2C12COc1cc3c(cc12)OCO3` (stereo not drawn) was 270 to 272 °C.
The compound `CCc1c[nH]c(C2Cc3ccccc3N2C(=O)Nc2ccccc2[N+](=O)[O-])n1` (stereo not drawn) returned a melting point of 208 to 209 °C.
As to `COC(=O)c1ncc(Cl)nc1Cl`, the melting point fell in the range of 60 to 63 °C.
